The text below walks through data of patent US20250161238A1, “NMDAR Antagonists Prevent Ageing and Aging-Associated Conditions and Diseases Through Increasing 20S Proteasome Activity” (priority 2022, published 2025).

Entries after “also recorded” stand apart in the source; their conditions may differ.

One series relates to LC3. As to the kind of experiment: Autophagy: LC3 turnover and LC3 puncta in HepG2 stably expressing LC3. The note with it: HepG2 cell stably expressing LC3. In kind it is cell-based, human. The source says: One of the most experimentally straightforward method to monitor autophagic activity is the detection of microtubule-associated protein light chain 3 (LC3) protein processing. LC3 is the only known protein that is specifically associated with all types of autophagic membranes, including phagophore, autophagosome and autolysosome (a hybrid organelle formed by fusion of the autophagosome and lysosome). LC3 is specifically associated with the autophagosome. Upon the autophagy induction, the cytosolic LC3 (LC3-I) is conjugated to phosphatidylethanolamine (PE) to form lipidated LC3 (LC3-II). LC3-II binds to the expanding isolation membrane and remains bounded to complete autophagosome. Therefore, the amount of LC3-II correlates well with the number of autophagosomes, which is widely used as a marker for the autophagosome. Autophagy is a multi-step process which includes not just the formation of autophagosomes, but most importantly, the flux through the entire system, including the degradation of LC3-II upon fusion with lysosomes. Therefore, the expected result is that the LC3-II protein is degraded for complete autophagy. […] However, total amount of LC3 (LC3-I plus LC3II) was not changed.
The other basic protocol for the outophagy detection is monitoring the number of autophagosomes by visualizin LC3 puncta using flourescence microscopy. […]

The next series has as its system mice. As to the kind of experiment: Color change and condition of fur of aged mice. In kind it is in vivo. The note with it: 22 months of age; 3 mg/Kg/per day with drinking water. The source says:
Ten mice, one year old, were supplied for the study. The mice were divided into two groups and one added memenatine to their drinking water, while the other group was designated as the control group. Mice were followed until they were 2 years old. Clinical frailty tests were investigated and compared in the two groups of mice at 22 months. The simplest and most easly determined findings of clinical signs of deterioration in aging mice are the evaluation of changes in mouse skin.
The experimental protocols were approved by the Ethics Committee of Ankara University, Faculty of Medicine, Medical Sciences Experimental Research and Application Center (Date: Dec. 11, 2019 and Decision number: 2019-22-189). Adult (12-mounts-old) C57BL/6 mice (5 for each group) were used. The mice were housed at the Experimental Animal Research Laboratory of Ankara University Faculty of Medicine. Food and water were given without restriction. The ambient temperature was kept at 21±2° C., and locomotor activity tests were performed at this temperature. The animals were housed in a room with a 12-hour light/dark cycle. The procedures in the study were performed in accordance with the Ankara University Animal Care Committee according to international guidelines. […] Tests related to locomotor activities of the mice were recorded and available.

The subject of a further series is amyloid. As to the kind of experiment: Amyloid staining of mouse tissues. It counts as in vivo. The note with it: mice at 22 months. The source says: In the next study, the effects of NMDAR blocker on amyloid accumulation in brain, liver, and kidney of mice with the presence of memantine and control mice groups at 22 months were investigated by amyloid staining.
(§1) Whole frozen tissues were sectioned with a microtome and fixed in 4% paraformaldehyde, Tissues were washed in PBS and the individual staining methods used in accordance with the manufacturer's recommendations. Total pixels from fluorescence in the images were quantified using Adobe Photoshop software CS2 (Adobe Systems), and normalized to a nuclear stain.

In a further series the test system is lipid accumulation. Kind of series: Nile red staining of lipid in mouse tissues. Particulars: mice at 22 months. It counts as in vivo.
Text: In the next study, the effects of NMDAR blocker on lipid accumulation in liver, brain, muscle, lung, skin, pancreas, and kidney of mice with the presence of Memantine and control mice groups at 22 months were stained with Nile red and investigated.
as §1

Series [1] deals with mice with GD symptoms. The note with it: cited from earlier work.
Series [2] relates to mice with GD symptoms. The note with it: inverted screen / hanging wire test; cited from earlier work.
For series [3] the following is noted: cited from earlier work.
The test system of the next series is NMDA receptor. The note with it: cited from earlier work.
The conditions of series [4]: animals studies; cited from earlier work.

For the compound `CNC1(c2ccccc2Cl)CCCCC1=O` (stereo not shown) [ketamin, 2-(2-chlorophenyl)-2-(methylamino)-cyclohexanone], the “total amount of LC3 (LC3-I plus LC3II)” value in the series on LC3 is on record as “not changed”. For the same compound, the LC3-II amount entry in the series on LC3 (western blot) was “increase”.
In the case of `CC12CC3CC(C)(C1)CC(N)(C3)C2` [memantine, 3,5-dimethyladamantan-1-amine], the “color change and condition of mouse fur” value in the series with mice is “very different in favor of those who received memantine”. In the series with amyloid, the “amount of amyloid in brain tissue” value is “most significant difference”; the “amount of amyloid in liver and kidney” value is “statistically significant decrease”. Further, in the series on lipid accumulation, the “amount of lipid in liver, brain, muscle, lung, and skin” value is “less than that of the control group”; the “amount of lipid in pancreas and kidney” value is “No clear difference”. Also, the “life span of mice with Gaucher disease symptoms” value in the series with mice with GD symptoms [1] (A/J, C3H/HeJ, DBA/2J, C57BL6/JolaHsd, CBE 25 mg/kg day) is listed as “dramatically extended; also recorded: extend the lifespan”. Further, the “life span with memantine dose increased by 10 fold” value in the series with mice with GD symptoms [1] (mouse, in vivo) is given as “increases the life span of mice even more”. In addition, the “muscle strength / motor coordination of GD mice” value in the series on mice with GD symptoms [2] is on record as “much better; also recorded: improved significantly; also recorded: increase the muscle strength”. Also, the “free rat brain concentrations, lower in plasma” value in series [3] is given as 20-30%. In the series on NMDA receptor, the “block of NR2C and NR2D Subunits” value is on record as “preferentially blocks”; the “effects at NR2A” value was “weak effects”; the “potency at NR1A/2B” value was “intermediate potency”. In addition, the “levels at which the mechanism of action is specific for antagonism of the NMDA receptor” value with NMDA receptor (does not affect other ligand-gated or Voltage gated channels) was 1 to 10 µM. Also, the “induction of HSP, neuronal vacuolization and necrosis” value in series [4] is given as “No induction”.
